Measured values from the supplement of paper PMC10307832.

Experiments:
Assay in all cases: relative viability (nuclei count vs DMSO), 5 days (fraction); higher = more cells survive
Salubrinal + Linsitinib = compound: O=C(/C=C/c1ccccc1)NC(NC(=S)Nc1cccc2cccnc12)C(Cl)(Cl)Cl [Salubrinal] + C[C@]1(O)C[C@@H](c2nc(-c3ccc4ccc(-c5ccccc5)nc4c3)c3c(N)nccn32)C1 [Linsitinib] (partner 1 µM)
Method in brief: (§1)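 Relative viability is defined as nuclei in treated wells over nuclei in vehicle wells. Duplicate plates were run and medians reported. Lung cancer cell lines in 1536-well plates were dosed by pin tool one day after seeding, with one drug or with a fixed anchor-drug dose plus five library-drug doses (not always all listed) in √10 steps, and nuclei were counted after 5 days.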

Salubrinal + Foretinib = compound: O=C(/C=C/c1ccccc1)NC(NC(=S)Nc1cccc2cccnc12)C(Cl)(Cl)Cl [Salubrinal] + COc1cc2c(Oc3ccc(NC(=O)C4(C(=O)Nc5ccc(F)cc5)CC4)cc3F)ccnc2cc1OCCCN1CCOCC1 [Foretinib] (partner 0.25 µM)
Method in brief: as §1

Salubrinal + Bortezomib = compound: O=C(/C=C/c1ccccc1)NC(NC(=S)Nc1cccc2cccnc12)C(Cl)(Cl)Cl [Salubrinal] + CC(C)C[C@H](NC(=O)[C@H](Cc1ccccc1)NC(=O)c1cnccn1)B(O)O [Bortezomib] (partner 0.002 µM)
Method in brief: as §1

[1] = compound: Cc1ccc2nc(NCCN)c3ncc(C)n3c2c1 + Cc1cc(Nc2cc(N3CCN(C)CC3)nc(Sc3ccc(NC(=O)C4CC4)cc3)n2)n[nH]1 [Tozasertib] (partner 0.1 µM)
Method in brief: as §1

Cell Line	relative viability (Salubrinal + Linsitinib; first compound 0.08 µM)	relative viability (Salubrinal + Linsitinib; first compound 0.253 µM)	relative viability (Salubrinal + Linsitinib; first compound 0.8 µM)	relative viability (Salubrinal + Linsitinib; first compound 2.53 µM)	relative viability (Salubrinal + Linsitinib; first compound 8 µM)	relative viability (Salubrinal + Foretinib; first compound 0.08 µM)	relative viability (Salubrinal + Foretinib; first compound 0.253 µM)	relative viability (Salubrinal + Foretinib; first compound 0.8 µM)	relative viability (Salubrinal + Foretinib; first compound 2.53 µM)	relative viability (Salubrinal + Foretinib; first compound 8 µM)	relative viability (Salubrinal + Bortezomib; first compound 0.08 µM)	relative viability (Salubrinal + Bortezomib; first compound 0.253 µM)	relative viability (Salubrinal + Bortezomib; first compound 0.8 µM)	relative viability (Salubrinal + Bortezomib; first compound 2.53 µM)	relative viability (Salubrinal + Bortezomib; first compound 8 µM)	relative viability ([1]; first compound 0.04 µM)	relative viability ([1]; first compound 0.1265 µM)	relative viability ([1]; first compound 0.4 µM)	relative viability ([1]; first compound 1.265 µM)	relative viability ([1]; first compound 4 µM)
H3255	0.982	0.905	1.2	1.04	0.974	0.898	0.953	1.01	0.822	0.874	0.816	0.826	1.23	0.767	0.761	0.703	0.55	0.629	0.477	0.455
NCI-H2087	1.01	0.942	0.98	0.782	1.02	1.12	0.881	1.13	1.36	1.02	0.755	0.458	0.855	0.809	0.989	0.282	0.222	0.288	0.204	0.179
HCC-366	1.01	0.408	0.883	0.671	0.57	0.929	0.947	0.96	0.943	0.915	1.21	0.608	1.22	1.08	1.05	0.119	0.135	0.215	0.116	0.221
NCI-H727	0.347	0.33	0.323	0.326	0.323	1.09	0.856	1.06	0.778	0.898	0.748	0.504	0.983	0.862	0.741	0.599	0.688	0.704	0.578	0.641
LU99A	0.611	0.545	0.579	0.59	0.515	0.92	0.802	0.841	0.703	0.789	1.3	1.31	1.37	0.971	0.909	0.308	0.292	0.248	0.298	0.263
NCI-H647	1.26	1.26	1.48	1.07	1.27	1.4	1.2	1.27	1.17	1.12	1.05	1.37	1.2	1.06	0.792	0.246	0.306	0.356	0.281	0.128
HCC-78	0.59	0.558	0.796	0.481	0.508	0.597	0.561	0.584	0.649	0.551	0.516	0.579	0.521	0.537	0.427	0.4	0.375	0.291	0.403	0.388
NCI-H1755	1.05	0.869	1.03	1	0.947	0.95	0.928	0.897	0.911	0.937	1.06	0.968	1.05	1	0.945	0.552	0.565	0.536	0.511	0.524
NCI-H3122	1.07	1.06	0.984	1.06	0.987	1.07	0.924	1.03	0.986	0.964	1	1.01	0.927	0.98	0.991	0.436	0.391	0.412	0.352	0.293
PC-14	1.02	0.899	1.06	0.975	0.892	1.02	0.873	1.1	1	0.931	0.94	0.639	0.979	1	0.874	0.604	0.524	0.514	0.481	0.414
NCI-H2347	1.06	1	1.06	1.15	0.963	0.906	1.15	1.4	0.797	1.08	1.05	1.04	0.998	1.17	1.04	0.801	0.58	0.509	0.519	0.437
NCI-H2228	0.768	0.813	0.791	0.581	0.629	0.976	0.875	0.953	0.844	0.868	1.08	1.18	1.26	0.983	0.876	0.297	0.266	0.279	0.224	0.219
EKVX	1.4	0.744	1.15	1.01	0.856	0.755	0.776	0.82	0.714	0.792	1.14	0.821	1.17	1.06	1.02	0.433	0.359	0.366	0.349	0.407
HOP-62	1.07	0.918	1.1	0.977	0.998	1.07	0.981	1.22	1.08	1.14	0.392	0.576	0.601	0.874	1.04	0.383	0.379	0.396	0.367	0.402
NCI-H2126	0.716	0.707	0.748	0.693	0.689	1.51	1.13	1.1	1.25	1.11	1.11	1.02	1.21	1.22	1.07	0.955	0.857	0.869	0.852	0.734
SW 1573	0.903	0.759	0.718	0.792	0.844	0.875	0.719	0.979	0.954	1.07	1.36	0.779	1.27	0.834	0.982	0.187	0.177	0.19	0.214	0.157
EPLC-272H	1.19	0.832	1.37	1.27	1.05	0.853	0.655	0.65	0.64	0.519	0.884	0.756	1.11	1.1	0.855	0.249	0.33	0.348	0.237	0.251
PC-3 [JPC-3]	0.927	0.999	0.982	0.928	0.937	0.99	0.918	1.07	1	0.998	0.775	0.718	0.89	0.863	0.75	0.899	0.821	0.914	0.848	0.833
NCI-H650	0.778	0.772	0.99	0.959	0.756	1.06	1.19	1.02	1.1	1.05	0.877	0.724	1.23	0.997	0.817	0.725	0.727	0.752	0.615	0.746
NCI-H838	1.25	0.722	1.08	1.13	0.98	1.13	1.11	1.06	1.02	1.06	0.82	0.749	0.983	0.911	0.608	0.259	0.287	0.278	0.304	0.26
COR-L 105	1.04	1.03	0.737	0.953	0.776	0.981	1.14	1.22	0.892	1.02	0.756	0.829	0.86	0.816	0.604	0.374	0.355	0.294	0.353	0.302
NCI-H2405	1.07	1	0.861	0.889	0.843	1.06	1.05	1.05	1.05	1.01	1.11	0.963	1.02	1.04	1.05	0.731	0.723	0.708	0.639	0.68
NCI-H661	0.701	0.464	0.509	0.561	0.464	0.996	1.06	1.05	0.991	1.02	0.876	0.781	0.714	0.821	0.865	0.358	0.353	0.366	0.321	0.372
NCI-H1915	1.02	1.06	1.16	1.1	1.13	1.11	0.932	1.28	1.14	1.08	0.98	0.56	1.09	1.03	0.954	0.481	0.492		0.432	0.416
CAL-12T	0.754	0.883	0.971	0.806	0.726	1.14	1.07	1.09	0.978	0.991	0.983	0.899	1.54	0.915	0.998	0.288	0.353	0.376	0.291	0.269
LXF-289	1.04	0.861	1.03	0.968	0.893	1.12	0.909	1.01	0.963	0.925	1.06	0.654	1.06	0.969	0.851	0.186	0.192	0.163	0.178	0.212
